Laboratory results as given in ChEMBL document CHEMBL4433208, “N-Nitrosulfonamides as Carbonic Anhydrase Inhibitors: A Promising Chemotype for Targeting Chagas Disease and Leishmaniasis” (ACS Med Chem Lett, 2019).
Converted amounts (≈) assume the structure as drawn.

How the values were obtained:
Leishmania amazonensis [1] = experiment: microbe, parasite or virus in culture; format: functional, organism-based; details: IFLA/BR/1967/PH8, 48 h
Description: Antileishmanial activity against Leishmania amazonensis IFLA/BR/1967/PH8 promastigotes assessed as reduction in parasite viability IFLA/BR/1967/PH8 after 48 hrs by resazurin dye based assay

in vitro [2] = details: mouse, RAW264.7 cells
Description: Cytotoxicity against mouse RAW264.7 cells assessed as reduction in cell viability after 48 hrs by MTT assay

Leishmania amazonensis [3] = experiment: microbe, parasite or virus in culture; format: functional; details: IFLA/BR/1967/PH8, 48 h
Description: Antileishmanial activity against Leishmania amazonensis IFLA/BR/1967/PH8 promastigotes after 48 hrs by resazurin dye based assay

Leishmania infantum [4] = experiment: microbe, parasite or virus in culture; format: functional, organism-based; details: MHOM/BR/1974/PP75, 48 h
Description: Antileishmanial activity against Leishmania infantum MHOM/BR/1974/PP75 promastigotes assessed as reduction in parasite viability after 48 hrs by resazurin dye based assay

Leishmania infantum [5] = experiment: microbe, parasite or virus in culture; format: functional; details: MHOM/BR/1974/PP75, 48 h
Description: Antileishmanial activity against Leishmania infantum MHOM/BR/1974/PP75 promastigotes after 48 hrs by resazurin dye based assay

Trypanosoma cruzi [6] = experiment: microbe, parasite or virus in culture; format: functional; details: Y
Description: Antitrypanosomal activity against Trypanosoma cruzi Y epimastigotes resazurin dye based assay

in vitro [7] = details: chlorocebus sabaeus, Vero cells
Description: Cytotoxicity against African green monkey Vero cells 72 hrs by CellTiter-Glo assay

Trypanosoma cruzi [8] = experiment: microbe, parasite or virus in culture; format: functional; details: Dm28c, 48 h
Description: Antitrypanosomal activity against Trypanosoma cruzi Dm28c epimastigotes after 48 hrs by resazurin dye based assay

Structure (SMILES) | IC50 (Leishmania amazonensis [1]) | CC50 at 48 h (in vitro [2]) | MIC (Leishmania amazonensis [3]) | IC50 (Leishmania infantum [4]) | MIC (Leishmania infantum [5]) | MIC (Trypanosoma cruzi [6]) | CC50 at 72 h (in vitro [7]) | MIC (Trypanosoma cruzi [8])
C[C@@H]1[C@H](O)[C@@H](C)/C=C/C=C/C=C/C=C/C=C/C=C/C=C/[C@H](O[C@@H]2O[C@H](C)[C@@H](O)[C@H](N)[C@@H]2O)C[C@@H]2O[C@](O)(C[C@@H](O)C[C@@H](O)[C@H](O)CC[C@@H](O)C[C@@H](O)CC(=O)O[C@H]1C)C[C@H](O)[C@H]2C(=O)O [AMPHOTERICIN B] | 1650 nM | 1000 nM | 8 µM (≈ 7.39 µg/mL) | 1770 nM | 8 µM (≈ 7.39 µg/mL) |  |  | 
O=C(Cn1ccnc1[N+](=O)[O-])NCc1ccccc1 [BENZNIDAZOLE] |  | 138000 nM |  |  |  | 32 µM (≈ 8.33 µg/mL) | > 500000 nM | 32 µM (≈ 8.33 µg/mL)
